Results from patent EP4810009A1, “MELANOGENESIS INHIBITOR AND EXTERNAL PREPARATION FOR SKIN CONTAINING SAME” (MITSUBISHI GAS CHEMICAL COMPANY, INC., priority 2023, dated 2025).

Tests used:
[1] = system: Cutibacterium acnes NBRC 107605; test: Ability to eliminate acne bacteria; type: cell-based; conditions: 0.05 mL of aqueous solution of 7% by weight of organic acid added to 5 mL test solution; viable cell count after 60 seconds
Procedure: 0.05 mL of an aqueous solution of 7% by weight of organic acid was added dropwise to 5 mL of a test solution containing the bacterial strain Cutibacterium acnes NBRC 107605 at a concentration of 10^8 CFU/mL. After 60 seconds, if the viable cell count was less than 1%, it was evaluated as A; if the viable cell count was 1% or more, it was evaluated as B. [Table 10]

[2] = system: pig skin; test: Chemical peeling ability; conditions: aqueous solution of 7% by weight of organic acid on pig skin for 24 hours; decrease of stratum corneum thickness
Procedure: An aqueous solution of 7% by weight of organic acid was allowed to act on to pig skin for 24 hours. If the thickness of the stratum corneum decreased by 10% or more, it was evaluated as A; if it decreased by less than 10%, it was evaluated as B.

[3] = Solubility in oils (saturated solubility of oleic acid in organic acid solution); type: physicochemical; conditions: oleic acid in aqueous solution of 50% by weight of organic acid; room temperature (23°C), 24 hours
Procedure: Oleic acid was added into an aqueous solution of 50% by weight of organic acid, and the mixed solution was then stirred at room temperature (23°C) for 24 hours.

[4] = Solubility in oils and fats (saturated solubility of palmitic acid in organic acid solution); type: physicochemical; conditions: palmitic acid in aqueous solution of 50% by weight of organic acid; room temperature (23°C), 24 hours
Procedure: Palmitic acid was added into an aqueous solution of 50% by weight of organic acid, and the mixed solution was then stirred at room temperature (23°C) for 24 hours.

[5] = system: B16 melanoma; test: Evaluation of melanin production inhibitory activity; type: cell-based, mouse; conditions: 100 µM methyl lactic acid, pH 6.5 with NaOH; one day of culture; compared with kojic acid 1 mM positive control; Figure 1
Procedure: As melanin-producing cells, mouse-derived skin melanoma cells, B16 melanoma (JCRB0202, purchased from JCRB Cell Bank) were used. As a medium for cell culture, 500 mL of E-MEM medium was mixed with 5 mL of x 100 penicillin-streptomycin solution and 100 mL of inactivated fetal bovine serum (manufactured by West Bio), and the resulting medium was used. For the subculture of cells, the cells were washed with a phosphate buffer (manufactured by GIBCO), and were detached from the vessel with 0.25% trypsin and EDTA (ethylenediaminetetraacetic acid), followed by addition of a medium, and the obtained mixture was centrifugated to separate the cels. To ensure stable cell culture, the cell concentration was adjusted to 5 to 16 x 10^4 cells/mL, and the cells were then cultured in a 10-cm petri dish or a plastic culture flask (175 cm^2) in the presence of 5% carbon dioxide at 37°C. […] The absorbance at 450 nm was measured using a plate reader, and the melanin concentration was calculated. […] The melanin production percentage (%) shown in Figure 1 is a relative value (%) in a case where the melanin concentration in the negative control is taken as 100%, and for each case, it is an average value of the values measured for 12 samples.

[6] = system: tyrosinase mRNA; test: Evaluation of suppression of melanin synthesis-related factor mRNA expression (Real-time PCR); type: cell-based; conditions: normal human melanocytes; 10 and 20 mM; 24 hours; Figure 5
Procedure: Normal human melanocytes (manufactured by Kurabo Industries, Ltd.) were used as melanin-producing cells. As a medium for the cells, […] was used. The cell concentration was adjusted to 3 x 10^4 cells/mL, and the cells were cultured in a 96-well plate in the presence of 5% carbon dioxide at 37°C for 24 hours. As a test sample, NaOH was added to methyl lactic acid to adjust the pH to 6.5, and was used. […] As a control, […], into which methyl lactic acid was not added, was used. The medium was replaced with the test sample (100 μL/well) and cultured for 24 hours. After removing the medium, RNA was extracted using Cells-to-Ct kit (manufactured by Themo), and was then subjected to reverse transcription to synthesize cDNA. Using the resulting cDNA, Real-time PCR was carried out, and the relative expression level of mRNA was calculated. In Figure 5, "Control" is a negative control, which uses a medium without the test sample.

[7] = system: B16 melanoma; test: Cytotoxicity test (Cell counting Kit 8); type: cell-based, mouse; conditions: 100 µM methyl lactic acid, one day of culture, Figure 2
Procedure: Cell culture was performed by the same method as that in Example 1 mentioned above.
The test sample was prepared by the same method as that in Example 1 mentioned above.
Cells were detached from the culture obtained under the cell culture conditions described in Example 1, and 0.1 mL of cells and medium were each seeded into a 96-well vessel to a cell concentration of 5 x 10^4 cells/mL. After one day of culture, the medium was removed and replaced with the test sample. After one further day of culture, the vessel was washed with an assay medium, and 0.1 mL each of a 1 : 9 mixed solution of Cell counting Kit 8 and medium was added. After the mixture had been left at rest at 37°C for 30 minutes in the presence of 5% carbon dioxide, the absorbance at 450 nm was measured using a plate reader, and the cell count was calculated.
The cell count (%) is a relative value (%) in a case where the cell count in the negative control (medium alone) is taken as 100%, and for each case, it is an average value of the values measured for 16 samples.

[8] = system: tyrosinase protein; test: Tyrosinase protein expression inhibition test (Western blot); type: cell-based; conditions: normal human melanocytes; 20 mM; 48 hours; Figure 4
Procedure: Normal human melanocytes (manufactured by Kurabo Industries Ltd.) were used as melanin-producing cells. As a medium for the cells, Dermalife was used. The cell concentration was adjusted to 3 x 10^5 cells/1.5 mL, and the cells were cultured in a 6-well plate in the presence of 5% carbon dioxide at 37°C for 24 hours.
(§1) As a test sample, NaOH was added to methyl lactic acid to adjust the pH to 6.5, and was used. […]. As a control, Dermalife, into which methyl lactic acid was not added, was used.
The medium was replaced with the test sample (1.5 mL/well) and cultured for 48 hours. After removing the medium, proteins were extracted using M-PER™ Mammalian Protein Extraction Reagent (manufactured by Themo), and were then developed by SDS-PAGE. After the resultant had been transferred onto a polyvinylidene difluoride (PVDF) membrane, the membrane was blocked with 5% skim milk. After a reaction had been performed with an anti-tyrosinase antibody (manufactured by Santa Cruz Biotechnology) for 1 hour, the membrane was further reacted with an HRP-conjugated secondary antibody (manufactured by abcam) for an additional 1 hour. Protein bands were detected using Ez West Blue W (manufactured by ATTO). The signal intensity of the resulting bands was detected using the image processing software ImageJ, and the relative protein expression levels were calculated. […]

[9] = system: tyrosinase; test: Tyrosinase biosynthesis inhibitory action test (DOPA-melanin per unit protein in cell lysate); type: cell-based; conditions: normal human melanocytes; 2.5, 5, 10, 20, and 40 mM; one day of culture; Figure 3
Procedure: Normal human melanocytes (manufactured by Kurabo Industries, Ltd.) were used as melanin-producing cells. As a medium for the cells, Dermalife (manufactured by Kurabo Industries, Ltd.) was used. The cell concentration was adjusted to 3 x 10^4 cells/mL, and the cells were cultured in a 96-well plate in the presence of 5% carbon dioxide at 37°C for 24 hours.
as §1
The medium was removed from the culture obtained under the aforementioned cell culture conditions and replaced with the test sample. After one day of culture, the medium was removed, and a phosphate buffer containing 0.5% Triton X-100 was added in an amount of 50 µL/well. The cells were lysed by agitation. 50 µL of the cell lysate was mixed with 50 µL of phosphate buffer containing 2 mM DOPA, and the obtained mixture was then incubated at 37°C for 2 hours. The absorbance (measurement wavelength: 405 nm, reference wavelength: 650 nm) was measured, and the amount of DOPA-melanin was calculated from a calibration curve. The amount of the protein was quantified using a BCA protein assay kit (Thermo), and the amount of DOPA-melanin per unit protein was then calculated to confirm tyrosinase biosynthesis inhibitory action. […]

Row | SMILES | Ability to eliminate acne bacteria [1] | Chemical peeling ability [2] | Solubility in oils [3] | Solubility in oils and fats [4] | melanogenesis-inhibiting effect (melanin production percentage) [5] | tyrosinase mRNA expression-suppressing action (relative expression level of tyrosinase mRNA) [6] | cytotoxicity (cell count) [7] | tyrosinase protein expression inhibitory action (relative expression level of tyrosinase protein) [8] | tyrosinase biosynthesis inhibitory action (DOPA-melanin per unit protein) [9]
1 | O=C(O)CO [Glvcolic acid] | A (if the viable cell count was less than 1%, it was evaluated as A) | A (If the thickness of the stratum corneum decreased by 10% or more, it was evaluated as A) |  |  |  |  |  |  | 
2 | O=c1cc(CO)occ1O [Kojic acid, reference compound] | B (if the viable cell count was 1% or more, it was evaluated as B) | B (if it decreased by less than 10%, it was evaluated as B) | B (if it was less than 200 ppm, it was evaluated as B) | B (if it was less than 20 ppm, it was evaluated as B) |  |  |  |  | 
3 | CC(O)C(=O)O (centres unmarked) [Lactic acid] | A (if the viable cell count was less than 1%, it was evaluated as A) | A (If the thickness of the stratum corneum decreased by 10% or more, it was evaluated as A) |  |  |  |  |  |  | 
4 | CC(C)(O)C(=O)O [Methyl lactic acid, 2-hydroxyisobutyric acid] | A (if the viable cell count was less than 1%, it was evaluated as A) | A (If the thickness of the stratum corneum decreased by 10% or more, it was evaluated as A) | A (if the saturated solubility of oleic acid was 200 ppm or more, it was evaluated as A) | A (if the saturated solubility of palmitic acid was 20 ppm or more, it was evaluated as A) | the same melanogenesis-inhibiting effect as the addition of kojic acid | exhibited a tyrosinase mRNA expression-suppressing action | cytotoxicity was not confirmed | a tyrosinase protein expression inhibitory action was exhibited | a tyrosinase biosynthesis inhibitory action was exhibited in a dose-dependent manner
